Test [1] is described as follows: Inhibition of Francisella tularensis IMPDH expressed in Escherichia coli BL21(DE3) deletion in guaB gene using IMP as substrate preincubated for 10 mins followed by substrate addition in presence of NAD by spectrophotometer.
Test [2] addresses Inosine-5'-monophosphate dehydrogenase (Mycobacterium tuberculosis (strain ATCC 25618 / H37Rv)) (UniProt P9WKI7). Put plainly: Inhibition of Mycobacterium tuberculosis H37Rv IMPDH2 at 1 uM using IMP as substrate incubated for 20 mins in presence of NAD by UV spectrophotometric analysis relative to control.
The nature of test [3]: Inhibition of Helicobacter pylori IMPDH using IMP as substrate preincubated for 10 mins followed by addition of substrate and measured after 45 mins in presence of NAD by fluorescence based assay.
Test [4] in a line: Inhibition of Mycobacterium tuberculosis IMPDH2.
Test [5] can be described thus: Inhibition of Helicobacter pylori IMPDH.
The target of test [6] is Inosine-5'-monophosphate dehydrogenase 2 (Homo sapiens) (UniProt P12268). Put plainly: Inhibition of human IMPDH2 relative to control. The following applies: concentration not given here.

Molecules are shown by their SMILES.

Chain of Inosine-5'-monophosphate dehydrogenase (Mycobacterium tuberculosis (strain ATCC 25618 / H37Rv)) (P9WKI7 whole entry): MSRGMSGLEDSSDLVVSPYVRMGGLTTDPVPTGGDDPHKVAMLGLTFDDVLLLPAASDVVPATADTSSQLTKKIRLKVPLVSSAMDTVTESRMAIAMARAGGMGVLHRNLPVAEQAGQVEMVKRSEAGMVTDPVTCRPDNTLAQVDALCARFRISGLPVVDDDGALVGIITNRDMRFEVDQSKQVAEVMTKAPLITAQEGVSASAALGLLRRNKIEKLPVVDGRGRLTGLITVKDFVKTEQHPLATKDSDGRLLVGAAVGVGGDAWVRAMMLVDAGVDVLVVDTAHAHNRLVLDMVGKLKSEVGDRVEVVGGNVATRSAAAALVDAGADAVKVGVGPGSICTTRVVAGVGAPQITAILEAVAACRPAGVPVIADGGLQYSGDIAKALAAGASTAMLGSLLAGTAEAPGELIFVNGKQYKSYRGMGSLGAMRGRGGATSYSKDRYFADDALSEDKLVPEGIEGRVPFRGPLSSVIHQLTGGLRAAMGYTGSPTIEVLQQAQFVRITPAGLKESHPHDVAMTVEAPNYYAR
Chain of Inosine-5'-monophosphate dehydrogenase 2 (Homo sapiens) (P12268 2-514 limits assumed): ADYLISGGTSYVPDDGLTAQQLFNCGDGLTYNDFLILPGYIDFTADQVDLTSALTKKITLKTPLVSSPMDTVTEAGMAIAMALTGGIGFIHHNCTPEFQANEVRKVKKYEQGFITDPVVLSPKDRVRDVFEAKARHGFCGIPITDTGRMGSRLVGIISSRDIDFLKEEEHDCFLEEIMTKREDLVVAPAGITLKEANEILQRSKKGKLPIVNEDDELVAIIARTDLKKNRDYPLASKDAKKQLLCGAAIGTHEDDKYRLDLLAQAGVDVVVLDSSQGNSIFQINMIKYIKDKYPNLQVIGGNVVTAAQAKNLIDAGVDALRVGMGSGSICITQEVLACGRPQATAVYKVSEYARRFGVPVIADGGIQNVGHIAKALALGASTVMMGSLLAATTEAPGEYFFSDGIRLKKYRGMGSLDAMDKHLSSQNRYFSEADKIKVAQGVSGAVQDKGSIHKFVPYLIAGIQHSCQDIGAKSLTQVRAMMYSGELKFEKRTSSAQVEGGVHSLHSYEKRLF

In general, Ki refers to a dissociation constant, usually derived from enzyme kinetics or from competition with a known ligand. For `C[C@H](Oc1cccc2ccccc12)C(=O)Nc1ccc2oc(-c3ccncc3)nc2c1`, in test [1], the Ki was found to be 0.03 µM.
The inhibition is the relative decrease from the control value, in per cent. As for `Cc1ccc([N+](=O)[O-])cc1NC(=O)Nc1cccc(Cl)c1`, the inhibition in test [2] is above 90%.
Take `C[C@H](Oc1cccc(Cl)c1Cl)C(=O)Nc1ccc2oc(-c3ccncc3)nc2c1`: the inhibitory constant (Ki) in test [1] is 0.022 µM.
In general, IC50 refers to the concentration at which inhibition is half-maximal. `COc1cccc(Cn2cc(COc3ccc(-c4nnc(C)o4)cc3)nn2)c1`: the IC50 in test [3] worked out at 4.06 µM.
Regarding `COc1c(C)c2c(c(O)c1C/C=C(\C)CCC(=O)O)C(=O)OC2` [MYCOPHENOLIC ACID], it took 27.2 µM to reach half-maximal inhibition in test [4] (IC50).
As for `C[C@H](Oc1cccc(Cl)c1Cl)C(=O)Nc1ccc2oc(-c3ccc(C(=O)O)cc3)nc2c1`, in test [1], the inhibition constant Ki was determined as 0.0155 µM.
For `C[C@H](Oc1cccc(Cl)c1Cl)C(=O)Nc1ccc2oc(-c3ccc(C(=O)NO)cc3)nc2c1`, the Ki in test [1] was determined as 0.013 µM.
As to `O=C(Cn1cc(C(=O)Nc2cccnc2)c2ccccc21)Nc1ccc(Br)cc1`, in test [5], half-maximal inhibition (IC50) was put at 2.2 µM.
As to `O=C(Nc1ccc(Cl)c(Cl)c1)Nc1ccc(Br)cc1F`, the inhibition in test [2] was above 90%.
Still for that read-out and setting: as for `O=C(Nc1cccc([N+](=O)[O-])c1)Nc1ccc(Cl)c(C(F)(F)F)c1`, the figure is above 90%.
In test [6], `O=C(Cc1ccc(F)c2ccccc12)Nc1ccc2c(c1)COC2=O` yielded an inhibition below 0.1%. In addition, in test [4], the IC50 was 3.2 µM.
`CC(C(=O)Nc1ccc2c(c1)COC2=O)c1ccc(C(=O)c2ccccc2)cc1` (stereo not drawn) displayed an IC50 in test [4] of 6.2 µM.

For the origin of these results see ChEMBL document CHEMBL4354787, “Inhibitors of inosine 5'-monophosphate dehydrogenase as emerging new generation antimicrobial agents” (Medchemcomm, 2019).
